Source: patent US20080058280A1, “Treatment of Lymphoma Using 10-Propargyl-10-Deazaaminopterin and Gemcitabine” (SLOAN-KETTERING INSTITUTE FOR CANCER RESEARCH, priority 2004, published 2008)

What was measured:
SKI-DLBCL cells = experiment: Cell cycle analysis (propidium iodide binding); format: cell-based, human; settings: result in words
Method: All drugs were assayed at equimolar concentrations (i.e. 1 nM). The incubation conditions were modeled after the in vitro cytotoxicity experiments. Single agent drugs or combinations of all drugs studied without schedule considerations were incubated for 72 hours, while drugs that were studied in some schedule were introduced in a 24+48 incubation scheme (i.e. drug B added 24 hours following drug A, then incubated for an additional 48 hours for a total incubation time of 72 hours). […] In addition to monitoring apoptosis, cell cycle kinetic analyses were also performed on all treated cells based the propidium iodide binding.

[1] = tested on: subcutaneous tumors of SKI; experiment: Preliminary combination xenograft experiment; format: in vivo, irradiated NOD-SCID mice; settings: for tumor response (in words): MTX 40 mg/kg (MTD), Ara-C 300 mg/kg (MTD), or combination at one-half the MTD
Method: Given the experience that SKI-DLCL-1 is the most PDX resistant line in the panel, it was selected for these in vivo synergy experiments. […] All animals were treated with the maximum tolerated dose (MTD) of each drug, save the combination studies.

SKI-DLBCL-1 xenograft = experiment: Second combination xenograft experiment (FIG. 5); format: in vivo, SCID beige mice; settings: PDX and Gem at one-quarter of the MTD (15 mg/kg); MTX (60 mg/kg) alone, Ara-C (300 mg/kg) alone or both
Method: The same type of test was repeated to assess the in vivo efficacy of using combination therapies. […] Schedule dependent treatment was also determined by pretreating animals with PDX or MTX followed 24 hours later with Gem or Ara-C, respectively. One cohort of animals was treated with Gem followed by PDX. In all cases, the control animals received intraperitoneal injections of normal saline.
Tumor bearing mice were assessed for weight loss and tumor volume at least twice weekly for the duration of the experiment. The data are expressed as the average tumor volume (mm3) per group as a function of time. Tumors were assessed by measuring the two largest perpendicular axes (l=length, w=width) with standard calipers. Tumor volume was calculated using the formula 4/3 πr^3 where r=(l+w)/4. Animals were sacrificed when one dimensional tumor diameter exceeded 2.0 cm, or after loss of more than 10% of their body weight in accordance with institutional guidelines. Animals were housed in standard shoe box cages in temperature and humidity constant rooms on a 12 hour light and dark cycle. Food and water were supplied ad libitum. Animals were maintained in core animal facilities under an institute approved animal protocol.

[2] = cited from earlier work; for weight loss at the MTD: nude mice
SKI-DLBCL-1 xenografts = experiment: TUNEL immunohistochemical staining for apoptosis in xenografts; format: in vivo, mice; settings: day 21; MTX 40 mg/kg or PDX 60 mg/kg on days 0, 3, 7 and 10
Method: Immunohistochemical staining for apoptosis as measured by terminal deoxynucleotide transferase-mediated nick end-labeling (TUNEL) was performed on SKI-DLBCL-1 xenografts from mice sacrificed at day 21 following initiation of antifolate therapy. Mice received four doses of saline, MTX (40 mg/kg) or PDX (60 mg/kg) on days 0, 3, 7 and 10.

[3] = tested on: human HT (diffuse large B cell) non-Hodgkin's lymphoma xenografts; experiment: Subcutaneous lymphoma xenograft treatment; format: in vivo
Text: (§1) In order to study the effects of PDX on lymphoma growth in vivo, subcutaneous transplantation models in NOD/SCID mice were generated using three established human lymphoma cell line representative of aggressive transformed FL (RL) and de novo extranodal DLBCL (HT; SKI-DLCL-1) histologies. Six to eight week old non-obsese diabetic severe combined immunodeficient (NOD/SCID) mice (Jackson Laboratories, Bar Harbor, Me.) were sub-lethally irradiated with […] from a gamma source and inoculated with 10×10^6 lymphoma cells via a subcutaneous route. When tumor volumes approached 100 mm^3, mice were divided into three groups, averaging 3-8 mice per group. Mice were treated with normal saline or the maximum tolerated dose (MTD) of MTX (40 mg/kg) or PDX (60 mg/kg) via an intraperitoneal route twice weekly for two weeks (four total doses). […] (Sirotnak, et al., Cancer Chemother. Pharmacol. 12: 26-30 (1984); Sirotnak et al., Cancer Chemother. Pharmacol. 42: 313-318 (1998).
(§2) Engraftment rates in this experiment ranged from 80 to 90%. Palpable tumors formed under the skin approximately 7-10 days after inoculation and were readily measurable with calipers. Mice with subcutaneous lymphoma growths survived an average of 40-50 days after inoculation.

[4] = tested on: human RL (transformed follicular) non-Hodgkin's lymphoma xenografts; experiment: Subcutaneous lymphoma xenograft treatment; format: in vivo
Text: as §1, §2

[5] = tested on: human SKI-DLCL-1 (de novo diffuse large B cell) non-Hodgkin's lymphoma xenografts; experiment: Subcutaneous lymphoma xenograft treatment; format: in vivo; settings: SKI-DLCL-1 xenografts
Text: as §1, §2

[6] = tested on: RL (Transformed follicular); experiment: Growth inhibition in vitro, 5 day exposure (XTT or Alamar blue); format: cell-based; settings: Homo sapiens, 120 h, 5 day drug exposure
Method: (§3) A PDX preparation prepared in accordance with Example 1 and an MTX preparation were tested for cytotoxicity against a panel of five human lymphoma cell lines. Experiments were performed as described previously. (Sirotnak et al., Cancer Chemother. Pharmacol. 12: 18-25 (1984). In brief, 2.5 to 5×10^3 cells were plated per well in 96-well flat bottom plates. Drug was added in a 0.9% NaCl solution (pH 7.0) over a range of concentrations, and cells were continuously exposed to drug for 5 days. Colorimetric dye (XTT or Alamar blue) was added for an addition period of time (XTT dye, 6 hours, Alamar blue, 24 hours). Each plate was then read on an automated plate reader at 590 nm. The percentage of inhibition was calculated as growth of cells exposed to drug divided by growth of controls (cells incubated with media only). IC50 values were determined as the drug concentrations at which cell growth was inhibited 50% as compared to controls. Experiments were repeated as lest three times. Experiments were also conducted with continuous drug exposures lasting for 3 and 4 days with results similar to the 5 day results.

Raji (Burkitt's) = experiment: as above; format: cell-based; settings: Homo sapiens, 120 h, 5 day drug exposure
Method: as §3

[7] = tested on: HT (Diffuse large B cell); experiment: as above; format: cell-based; settings: Homo sapiens, 120 h, 5 day drug exposure
Method: as §3

[8] = tested on: Hs445 (Hodgkin's disease); experiment: as above; format: cell-based; settings: Homo sapiens, Hs 445, 120 h, 5 day drug exposure
Method: as §3

[9] = tested on: SKI-DLCL-1 (Diffuse large B Cell); experiment: as above; format: cell-based; settings: Homo sapiens, 120 h, 5 day drug exposure
Method: A PDX preparation prepared in accordance with Example 1 and an MTX preparation were tested for cytotoxicity against a panel of five human lymphoma cell lines. Experiments were performed as described previously. (Sirotnak et al., Cancer Chemother. […] Colorimetric dye (XTT or Alamar blue) was added for an addition period of time (XTT dye, 6 hours, Alamar blue, 24 hours). Each plate was then read on an automated plate reader at 590 nm. The percentage of inhibition was calculated as growth of cells exposed to drug divided by growth of controls (cells incubated with media only). […] Experiments were repeated as lest three times.

SMILES: Nc1ccn([C@@H]2O[C@H](CO)[C@@H](O)C2(F)F)c(=O)n1 [Gem, 1-(2′,2′-difluoro-β-D-arabinofuranosyl) cytosine]
- fraction of cells in S-phase (SKI-DLBCL cells): fewest

SMILES: Nc1ccn([C@@H]2O[C@H](CO)[C@@H](O)[C@@H]2O)c(=O)n1 [Ara-C, cytarabine]
- tumor response (in words) [1]: modest growth delay compared to the control
- tumor response (in words) (SKI-DLBCL-1 xenograft): sacrificed early due to excessive tumor growth

SMILES: C#CCC(Cc1cnc2nc(N)nc(N)c2n1)c1ccc(C(=O)N[C@@H](CCC(=O)O)C(=O)O)cc1 (stereo partly shown) [PDX, 10-Propargyl-10-deazaminopterin]
- tumor regrowth, % of initial tumor volumes ([1]; PDX or Gem at 60 mg/kg, by day 44): 739%
- maximum tolerated dose (MTD) ([2]; intraperitoneal, twice weekly, four total doses): 60 mg/kg
- weight loss at the MTD [2]: less than 10%
- apoptotic cells in tumor tissue (TUNEL) (SKI-DLBCL-1 xenografts): a high level of apoptotic cells
- Complete Regression (no/total) ([3]; MTX 40 mg/kg, PDX 60 mg/kg): 8/9
- Avg Tumor Diameter (mm ± SE) ([3]; MTX 40 mg/kg, PDX 60 mg/kg, at the nadir of tumor regression): 0.5 mm
- mice with complete tumor regression ([3]; PDX 60 mg/kg, 8 of 9): 89%
- Tumor Regression (%) ([3]; PDX 60 mg/kg, average tumor regression): 99%
- Complete Regression (no/total) ([4]; MTX 40 mg/kg, PDX 60 mg/kg): 5/9
- Tumor Regression (%) ([4]; PDX 60 mg/kg): 56%
- decrease of tumor volumes from initial volumes ([4]; PDX 60 mg/kg): at least 50%
- mice with tumor regressions ([4]; PDX 60 mg/kg, 5 of 9 mice): 57%
- Complete Regression (no/total) ([5]; MTX 40 mg/kg, PDX 60 mg/kg): 3/10
- Tumor Regression (%) ([5]; PDX 60 mg/kg): 54%
- decrease of tumor volumes from initial volumes ([5]; PDX 60 mg/kg): at least 50%
- mice with tumor regressions / complete remissions ([5]; PDX 60 mg/kg, 3 of 10 mice): 30%

SMILES: CN(Cc1cnc2nc(N)nc(N)c2n1)c1ccc(C(=O)N[C@@H](CCC(=O)O)C(=O)O)cc1 [MTX, methotrexate]
- tumor response (in words) [1]: modest growth delay compared to the control
- IC50 [6]: 210 ± 40 nM
- IC50 (Raji (Burkitt's)): 16 ± 0.8 nM
- IC50 [7]: 35 ± 5 nM
- IC50 [8]: 32 ± 2.2 nM
- IC50 [9]: 48 ± 2.5 nM
- weight loss at the MTD [2]: less than 10%
- apoptotic cells in tumor tissue (TUNEL) (SKI-DLBCL-1 xenografts): little or no evidence of apoptotic cells
- tumor response (in words) ([3]; MTX 40 mg/kg): modest growth delay as compared to controls, there was no tumor regression
- tumor response (in words) ([4]; MTX 40 mg/kg): small reductions in growth an no regressions
- tumor response (in words) ([5]; MTX 40 mg/kg): small reductions in growth an no regressions
- tumor response (in words) (SKI-DLBCL-1 xenograft): sacrificed early due to excessive tumor growth
